Read-outs that look alike come from different tables or passages of the source.
Legend:
Assay in all cases: Ras GTP binding domain inhibition assay (labeled GTP)
[1] = target: KRas G12D/Q61H double mutant (Homo sapiens (Human), UniProt P01116, G12D/Q61H)
Summary of the method: (§1)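 Ni-plate capture of His-KRas (3-10 μg/ml, o/n, 4° C); Tris pH 7.5/MgCl2/DTT buffer, 1% DMSO. Cpd 20 μM or titration, 3 h RT. Cy3/Cy5-GTP 45 min RT, wash, fluorescence of bound GTP.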

KRas wild type = KRas wild type (Homo sapiens (Human), UniProt P01116)
Chain of KRas wild type (P01116-2 other isoform, or with tags, fused parts or gaps): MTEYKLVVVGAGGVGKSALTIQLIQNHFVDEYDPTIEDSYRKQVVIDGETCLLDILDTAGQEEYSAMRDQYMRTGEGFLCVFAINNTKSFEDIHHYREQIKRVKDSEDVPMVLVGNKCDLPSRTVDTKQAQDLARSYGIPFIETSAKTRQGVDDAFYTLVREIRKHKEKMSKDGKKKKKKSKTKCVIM
Summary of the method: as §1

KRas G12C mutant = KRas G12C mutant (Homo sapiens (Human), UniProt P01116, G12C)
Chain of KRas G12C mutant (P01116-2 other isoform, or with tags, fused parts or gaps G12C): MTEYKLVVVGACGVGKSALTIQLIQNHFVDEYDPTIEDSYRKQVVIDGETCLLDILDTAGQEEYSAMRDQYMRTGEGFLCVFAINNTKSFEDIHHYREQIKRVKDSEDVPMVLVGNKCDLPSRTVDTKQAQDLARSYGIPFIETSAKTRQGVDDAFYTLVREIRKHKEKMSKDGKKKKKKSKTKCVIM
Summary of the method: as §1

KRas G12D mutant protein = KRas G12D mutant protein (Homo sapiens (Human), UniProt P01116, G12D)
Chain of KRas G12D mutant protein (P01116-2 other isoform, or with tags, fused parts or gaps G12D): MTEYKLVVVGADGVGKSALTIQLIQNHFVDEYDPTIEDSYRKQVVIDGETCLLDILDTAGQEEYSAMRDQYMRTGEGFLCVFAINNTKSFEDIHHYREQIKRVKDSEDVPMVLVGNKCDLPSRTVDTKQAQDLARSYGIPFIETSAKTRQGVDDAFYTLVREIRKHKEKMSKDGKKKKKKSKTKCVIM

[2] = 20 μM, read-out: KRas G12D Q61H % Inh.
[3] = 20 μM, read-out: KRas wild type, % Inh.
[4] = 20 μM, read-out: KRas G12C % Inh.
[5] = 20 μM, read-out: KRas G12D % Inh.
[6] = 20 μM compound, read-out: % Inhibition at 20 μM KRas G12D Q61H
[7] = 20 μM compound, read-out: % Inhibition at 20 μM KRas wild type
[8] = 20 μM compound, read-out: % Inhibition at 20 μM KRas G12C
[9] = 20 μM compound, read-out: % Inhibition at 20 μM KRas G12D

Chain of KRas G12D/Q61H double mutant (P01116-2 other isoform, or with tags, fused parts or gaps G12D/Q61H): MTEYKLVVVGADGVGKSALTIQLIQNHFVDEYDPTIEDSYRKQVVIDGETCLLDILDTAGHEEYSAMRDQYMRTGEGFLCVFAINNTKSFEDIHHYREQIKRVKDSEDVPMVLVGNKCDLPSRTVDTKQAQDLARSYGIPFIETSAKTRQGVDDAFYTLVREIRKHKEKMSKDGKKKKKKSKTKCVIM

| SMILES | inhibition at 20 µM [1, 2] | inhibition at 20 µM (KRas wild type; [3]) | inhibition at 20 µM (KRas G12C mutant; [4]) | inhibition at 20 µM (KRas G12D mutant protein; [5]) | inhibition at 20 µM [1, 6] | inhibition at 20 µM (KRas wild type; [7]) | inhibition at 20 µM (KRas G12C mutant; [8]) | inhibition at 20 µM (KRas G12D mutant protein; [9]) |
| --- | --- | --- | --- | --- | --- | --- | --- | --- |
| O=C(Nc1nnc(-c2ccccn2)[nH]1)C1CC(=O)N(Cc2cccc(C(F)(F)F)c2)C1 (stereo not shown) [drawing 2547] | 51 to 75% | 25 to 50% | 1 to 25% | 51 to 75% | – | – | – | – |
| COc1ccc(C(=O)Nc2nc(-c3ccccn3)cs2)cn1 [drawing 2581] | 51 to 75% | 51 to 75% | 51 to 75% | 76 to 100% | – | – | – | – |
| Oc1nc(-c2ccccn2)nc2c(Br)csc12 [drawing 2673] | – | – | – | – | 51 to 75% | 25 to 50% | 25 to 50% | 25 to 50% |
| CN(Cc1nnc(-c2ccccc2Cl)o1)Cc1ccccc1C(F)(F)F [drawing 2482] | 51 to 75% | 1 to 25% | 1 to 25% | 25 to 50% | – | – | – | – |
| Cc1cc(C(=O)Nc2nc(-c3ccccn3)cs2)no1 [drawing 2568] | 76 to 100% | 25 to 50% | 25 to 50% | 25 to 50% | – | – | – | – |
| CC1(O)CCN(C(=O)c2csc3c(O)nc(-c4ccccn4)nc23)CC1 [drawing 2683] | – | – | – | – | 25 to 50% | 51 to 75% | 25 to 50% | 51 to 75% |
| CC1(N)CCN(C(=O)c2csc3c(O)nc(-c4ccccn4)nc23)CC1 [drawing 2684] | – | – | – | – | 76 to 100% | 25 to 50% | 76 to 100% | 51 to 75% |
| Cc1sc2nc(-c3ccccn3)nc(NCCCO)c2c1-c1ccccc1 [drawing 2610] | 51 to 75% | 25 to 50% | 51 to 75% | 51 to 75% | – | – | – | – |
| COc1ccc(CCNC(=O)c2csc3nc(-c4ccccn4)nc(N4CCN(C)CC4)c23)cn1 | – | – | – | – | 25 to 50% | 25 to 50% | 25 to 50% | 25 to 50% |
| COCCC(C)Nc1nc(-c2ccccn2)nc2sccc12 (stereo not shown) [drawing 2709] | – | – | – | – | 25 to 50% | 1 to 25% | 25 to 50% | 51 to 75% |
| COCCCCNC(=O)c1csc2nc(-c3ccccn3)nc(N3CCN(C)CC3)c12 [drawing 2739] | – | – | – | – | 25 to 50% | 1 to 25% | 25 to 50% | 25 to 50% |
| O=C(Nc1nc(-c2ccccn2)cs1)c1cccnc1 [drawing 2576] | 51 to 75% | 25 to 50% | 51 to 75% | 51 to 75% | – | – | – | – |
| O=C(Nc1nnc(-c2ccccn2)[nH]1)c1ccc2ccccc2n1 [drawing 2472] | 76 to 100% | 51 to 75% | 25 to 50% | 76 to 100% | – | – | – | – |
| O=c1nc(-c2ccccn2)[nH]c2c1CCC2 [drawing 2591] | 51 to 75% | 25 to 50% | 25 to 50% | 51 to 75% | – | – | – | – |
| CS(=O)(=O)N1CCCc2cc(C(=O)Nc3nnc(-c4ccccn4)[nH]3)ccc21 [drawing 2561] | 76 to 100% | 51 to 75% | 25 to 50% | 51 to 75% | – | – | – | – |
| NC(=O)C1(CNc2nc(-c3ccccn3)nc3c2CCC3)CCCC1 [drawing 2608] | 51 to 75% | 25 to 50% | 25 to 50% | 51 to 75% | – | – | – | – |
| COc1ccc(CCC(=O)Nc2nnc(-c3ccccn3)[nH]2)cc1 [drawing 2469] | 51 to 75% | 25 to 50% | 25 to 50% | 25 to 50% | – | – | – | – |

| SMILES | inhibition at 20 µM [1, 2] | inhibition at 20 µM (KRas wild type; [3]) | inhibition at 20 µM (KRas G12C mutant; [4]) | inhibition at 20 µM (KRas G12D mutant protein; [5]) | inhibition at 20 µM [1, 6] | inhibition at 20 µM (KRas wild type; [7]) | inhibition at 20 µM (KRas G12C mutant; [8]) | inhibition at 20 µM (KRas G12D mutant protein; [9]) |
| --- | --- | --- | --- | --- | --- | --- | --- | --- |
| O=C(OCCc1cccnc1)N1CCCc2c(O)nc(-c3ccccn3)nc21 | – | – | – | – | 51 to 75% | 25 to 50% | 51 to 75% | 51 to 75% |
| CS(=O)(=O)Cc1ccc(C(=O)Nc2nc(-c3ccccn3)cs2)cc1 [drawing 2572] | 51 to 75% | 1 to 25% | 25 to 50% | 1 to 25% | – | – | – | – |
| O=C(Nc1nnc(-c2ccccn2)[nH]1)c1ccn(-c2ccccc2)n1 [drawing 2464] | 76 to 100% | 51 to 75% | 51 to 75% | 76 to 100% | – | – | – | – |
| O=c1nc(-c2ccccn2)[nH]c2scc(-c3ccccc3Cl)c12 [drawing 2585] | 51 to 75% | 25 to 50% | 25 to 50% | 51 to 75% | – | – | – | – |
| COc1cccc(C(=O)Nc2nc(-c3ccccn3)cs2)c1 [drawing 2580] | 51 to 75% | 25 to 50% | 51 to 75% | 51 to 75% | – | – | – | – |
| CC(O)CNc1nc(-c2ccccn2)nc2scc(-c3ccccc3)c12 (stereo not shown) [drawing 2607] | 51 to 75% | 25 to 50% | 1 to 25% | 51 to 75% | – | – | – | – |
| c1ccc(-c2nc(NCC3CCCO3)c3ccsc3n2)nc1 (stereo not shown) [drawing 2705] | – | – | – | – | 25 to 50% | 25 to 50% | 51 to 75% | 51 to 75% |
| O=C(Nc1nc(-c2ccccn2)cs1)c1cccc(F)c1 [drawing 2567] | 51 to 75% | 51 to 75% | 25 to 50% | 51 to 75% | – | – | – | – |
| Cc1cccc(CN(Cc2ccccn2)Cc2nccn2C)c1 [drawing 2613] | 51 to 75% | 25 to 50% | 25 to 50% | 51 to 75% | – | – | – | – |
| Cc1cc2c(=O)nc(-c3cc(OCC(F)F)ccn3)[nH]c2s1 [drawing 2593] | 76 to 100% | 25 to 50% | 25 to 50% | 51 to 75% | – | – | – | – |
| O=C(c1csc2c(O)nc(-c3ccccn3)nc12)N1CCN(c2ccccc2O)CC1 | – | – | – | – | 25 to 50% | 1 to 25% | 25 to 50% | 25 to 50% |
| O=C(c1ccn(-c2ccccc2)n1)N1CCCc2c(O)nc(-c3ccccn3)nc21 [drawing 2644] | 76 to 100% | 25 to 50% | 25 to 50% | 51 to 75% | – | – | – | – |
| COCC(C)Nc1nc(-c2ccccn2)nc2sc(C)c(-c3ccccc3)c12 (stereo not shown) [drawing 2604] | 51 to 75% | 25 to 50% | 25 to 50% | 51 to 75% | – | – | – | – |
| O=C(c1csc2c(O)nc(-c3ccccn3)nc12)N1CCOC(c2ccccc2F)C1 (stereo not shown) | – | – | – | – | 25 to 50% | 76 to 100% | 25 to 50% | 51 to 75% |
| OCCOCCNc1nc(-c2ccccn2)nc2scc(-c3ccccc3)c12 [drawing 2609] | 51 to 75% | 25 to 50% | 25 to 50% | 25 to 50% | – | – | – | – |
| O=C(Nc1nnc(-c2ccccn2)[nH]1)c1ccn(-c2cccc(Cl)c2)n1 [drawing 2559] | 76 to 100% | 25 to 50% | 1 to 25% | 76 to 100% | – | – | – | – |
| COC(=O)c1cc(NCc2nc(CC(C)C)no2)ccc1Cl [drawing 2612] | 51 to 75% | 1 to 25% | 25 to 50% | 51 to 75% | – | – | – | – |

From patent US10940139B2, “Compounds that interact with the Ras superfamily for the treatment of cancers, inflammatory diseases, rasopathies, and fibrotic disease” (Shy Therapeutics LLC, priority 2017, dated 2021)
